Experimental data from article PMC10999558, “Analyzing resistome in soil and Human gut: a study on the characterization and risk evaluation of antimicrobial peptide resistance” (Frontiers in Microbiology, 2024).

Key:
Type in all cases: cell-based, Escherichia coli
Details in all cases: MHB, 37°C, 24 h, triplicate
E. coli DH5α = experiment: MIC, broth microdilution, E. coli DH5α carrying pUC118 or resistance-conferring plasmids
Method: (§1) Escherichia coli DH5α, E. coli BL21(DE3), and E. coli JM109 were utilized in this study.
(§2) The MICs were determined using the broth microdilution method in 96-well microtiter plates ([Wiegand et al., 2008]). In brief, a 1:100 dilution of the mid-exponential phase bacterial culture (OD600 = 0.5), consisting of 5 μL (1 × 10^5 CFU/mL), was introduced into polypropylene 96-well plates. These plates contained a two-fold dilution series of AMP in a total volume of 100 μL MHB per well. The incubation of the plates occurred at 37°C in a humidity chamber. The MIC was identified as the lowest concentration that hindered visible bacterial growth after 24 h of incubation. Each experiment was conducted in triplicate.
(§3) Following validation, the colonies displaying resistance underwent additional testing via MIC assessments for the remaining four AMPs that were not employed during the selection process. This experimental procedure was carried out in triplicate.

E. coli JM109 = experiment: MIC, broth microdilution, retransformed E. coli JM109
Method: as §1, §2
(§4) Before washing down the colonies, we randomly selected two clones from each plate containing distinct AMP. Colony PCRs were conducted using M13 primer pairs to validate the presence of inserts and determine their sizes. The selected colonies were then subjected to sequencing. The specific details are provided in Supplementary Table S2. Following that, plasmids were isolated using the Plasmid Midiprep Kit (Zomanbio, ZP103) following the manufacturer’s guidelines. After the plasmids were successfully reintroduced into E. coli JM109 and E. coli BL 21(DE3), the MICs of the transformed strains against the AMP used for selection were tested. This testing process was carried out in triplicate.
as §3

E. coli BL21(DE3) = experiment: MIC, broth microdilution, retransformed E. coli BL21(DE3)
Method: as §1, §2, §4, §3

Polymyxin B [PB]
MIC (E. coli DH5α; E. coli DH5α containing pUC118 plasmids): 0.5 µg/mL | MIC (E. coli DH5α; colony pUC118-DH5α (control, no insert)): 0.5 µg/mL | MIC (E. coli DH5α; colony pUC118-FCST1-DH5α (feces insert 1 selected against colistin)): 0.5 µg/mL | MIC (E. coli DH5α; colony pUC118-FCST2-DH5α (feces insert 2 selected against colistin)): 1 µg/mL | MIC (E. coli DH5α; colony pUC118-FGQ1-DH5α (feces insert 1 selected against melittin)): 1 µg/mL | MIC (E. coli DH5α; colony pUC118-FGQ2-DH5α (feces insert 2 selected against melittin)): 1 µg/mL | MIC (E. coli DH5α; colony pUC118-FIB1-DH5α (feces insert 1 selected against iseganan)): 0.5 µg/mL | MIC (E. coli DH5α; colony pUC118-FIB2-DH5α (feces insert 2 selected against iseganan)): 1 µg/mL | MIC (E. coli DH5α; colony pUC118-FPB1-DH5α (feces insert 1 selected against polymyxin B)): 1 µg/mL | MIC (E. coli DH5α; colony pUC118-FPB2-DH5α (feces insert 2 selected against polymyxin B)): 1 µg/mL | MIC (E. coli DH5α; colony pUC118-FSA1-DH5α (feces insert 1 selected against cathelicidin-DM)): 0.5 µg/mL | MIC (E. coli DH5α; colony pUC118-FSA2-DH5α (feces insert 2 selected against cathelicidin-DM)): 1 µg/mL | MIC (E. coli DH5α; colony pUC118-SCST1-DH5α (soil insert 1 selected against colistin)): 0.5 µg/mL | MIC (E. coli DH5α; colony pUC118-SCST2-DH5α (soil insert 2 selected against colistin)): 0.5 µg/mL | MIC (E. coli DH5α; colony pUC118-SGQ1-DH5α (soil insert 1 selected against melittin)): 0.5 µg/mL | MIC (E. coli DH5α; colony pUC118-SGQ2-DH5α (soil insert 2 selected against melittin)): 0.5 µg/mL | MIC (E. coli DH5α; colony pUC118-SIB1-DH5α (soil insert 1 selected against iseganan)): 0.5 µg/mL | MIC (E. coli DH5α; colony pUC118-SIB2-DH5α (soil insert 2 selected against iseganan)): 0.5 µg/mL | MIC (E. coli DH5α; colony pUC118-SPB1-DH5α (soil insert 1 selected against polymyxin B)): 1 µg/mL | MIC (E. coli DH5α; colony pUC118-SPB2-DH5α (soil insert 2 selected against polymyxin B)): 2 µg/mL | MIC (E. coli DH5α; colony pUC118-SSA1-DH5α (soil insert 1 selected against cathelicidin-DM)): 0.5 µg/mL | MIC (E. coli DH5α; colony pUC118-SSA2-DH5α (soil insert 2 selected against cathelicidin-DM)): 0.5 µg/mL | MIC (E. coli JM109; colony pUC118-FCST1-JM109 (feces insert 1 selected against colistin)): 0.25 µg/mL | MIC (E. coli JM109; colony pUC118-FCST2-JM109 (feces insert 2 selected against colistin)): 1 µg/mL | MIC (E. coli JM109; colony pUC118-FGQ1-JM109 (feces insert 1 selected against melittin)): 0.5 µg/mL | MIC (E. coli JM109; colony pUC118-FGQ2-JM109 (feces insert 2 selected against melittin)): 0.5 µg/mL | MIC (E. coli JM109; colony pUC118-FIB1-JM109 (feces insert 1 selected against iseganan)): 0.25 µg/mL | MIC (E. coli JM109; colony pUC118-FIB2-JM109 (feces insert 2 selected against iseganan)): 0.5 µg/mL | MIC (E. coli JM109; colony pUC118-FPB1-JM109 (feces insert 1 selected against polymyxin B)): 0.5 µg/mL | MIC (E. coli JM109; colony pUC118-FPB2-JM109 (feces insert 2 selected against polymyxin B)): 0.5 µg/mL | MIC (E. coli JM109; colony pUC118-FSA1-JM109 (feces insert 1 selected against cathelicidin-DM)): 0.25 µg/mL | MIC (E. coli JM109; colony pUC118-FSA2-JM109 (feces insert 2 selected against cathelicidin-DM)): 0.5 µg/mL | MIC (E. coli JM109; colony pUC118-JM109 (control, no insert)): 0.25 µg/mL | MIC (E. coli JM109; colony pUC118-SCST1-JM109 (soil insert 1 selected against colistin)): 0.25 µg/mL | MIC (E. coli JM109; colony pUC118-SCST2-JM109 (soil insert 2 selected against colistin)): 0.25 µg/mL | MIC (E. coli JM109; colony pUC118-SGQ1-JM109 (soil insert 1 selected against melittin)): 0.25 µg/mL | MIC (E. coli JM109; colony pUC118-SGQ2-JM109 (soil insert 2 selected against melittin)): 0.25 µg/mL | MIC (E. coli JM109; colony pUC118-SIB1-JM109 (soil insert 1 selected against iseganan)): 0.25 µg/mL | MIC (E. coli JM109; colony pUC118-SIB2-JM109 (soil insert 2 selected against iseganan)): 0.25 µg/mL | MIC (E. coli JM109; colony pUC118-SPB1-JM109 (soil insert 1 selected against polymyxin B)): 0.5 µg/mL | MIC (E. coli JM109; colony pUC118-SPB2-JM109 (soil insert 2 selected against polymyxin B)): 0.5 µg/mL | MIC (E. coli JM109; colony pUC118-SSA1-JM109 (soil insert 1 selected against cathelicidin-DM)): 0.25 µg/mL | MIC (E. coli JM109; colony pUC118-SSA2-JM109 (soil insert 2 selected against cathelicidin-DM)): 0.25 µg/mL | MIC (E. coli BL21(DE3); colony pUC118-BL21(DE3) (control, no insert)): 1 µg/mL | MIC (E. coli BL21(DE3); colony pUC118-FCST1-BL21(DE3) (feces insert 1 selected against colistin)): 1 µg/mL | MIC (E. coli BL21(DE3); colony pUC118-FCST2-BL21(DE3) (feces insert 2 selected against colistin)): 2 µg/mL | MIC (E. coli BL21(DE3); colony pUC118-FGQ1-BL21(DE3) (feces insert 1 selected against melittin)): 2 µg/mL | MIC (E. coli BL21(DE3); colony pUC118-FGQ2- BL21(DE3) (feces insert 2 selected against melittin)): 2 µg/mL | MIC (E. coli BL21(DE3); colony pUC118-FIB1-BL21(DE3) (feces insert 1 selected against iseganan)): 1 µg/mL | MIC (E. coli BL21(DE3); colony pUC118-FIB2-BL21(DE3) (feces insert 2 selected against iseganan)): 2 µg/mL | MIC (E. coli BL21(DE3); colony pUC118-FPB1-BL21(DE3) (feces insert 1 selected against polymyxin B)): 4 µg/mL | MIC (E. coli BL21(DE3); colony pUC118-FPB2-BL21(DE3) (feces insert 2 selected against polymyxin B)): 2 µg/mL | MIC (E. coli BL21(DE3); colony pUC118-FSA1-BL21(DE3) (feces insert 1 selected against cathelicidin-DM)): 1 µg/mL | MIC (E. coli BL21(DE3); colony pUC118-FSA2-BL21(DE3) (feces insert 2 selected against cathelicidin-DM)): 4 µg/mL | MIC (E. coli BL21(DE3); colony pUC118-SCST1-BL21(DE3) (soil insert 1 selected against colistin)): 1 µg/mL | MIC (E. coli BL21(DE3); colony pUC118-SCST2-BL21(DE3) (soil insert 2 selected against colistin)): 1 µg/mL | MIC (E. coli BL21(DE3); colony pUC118-SGQ1-BL21(DE3) (soil insert 1 selected against melittin)): 1 µg/mL | MIC (E. coli BL21(DE3); colony pUC118-SGQ2-BL21(DE3) (soil insert 2 selected against melittin)): 1 µg/mL | MIC (E. coli BL21(DE3); colony pUC118-SIB1-BL21(DE3) (soil insert 1 selected against iseganan)): 1 µg/mL | MIC (E. coli BL21(DE3); colony pUC118-SIB2-BL21(DE3) (soil insert 2 selected against iseganan)): 1 µg/mL | MIC (E. coli BL21(DE3); colony pUC118-SPB1-BL21(DE3) (soil insert 1 selected against polymyxin B)): 2 µg/mL | MIC (E. coli BL21(DE3); colony pUC118-SPB2-BL21(DE3) (soil insert 2 selected against polymyxin B)): 2 µg/mL | MIC (E. coli BL21(DE3); colony pUC118-SSA1-BL21(DE3) (soil insert 1 selected against cathelicidin-DM)): 1 µg/mL | MIC (E. coli BL21(DE3); colony pUC118-SSA2-BL21(DE3) (soil insert 2 selected against cathelicidin-DM)): 1 µg/mL
